Experimental data as given in patent publication US9422240B2, “Partially saturated nitrogen-containing heterocyclic compound” (TAISHO PHARMACEUTICAL CO., LTD, priority 2012, dated 2016).
Where a name gives a salt, the structure may show the parent alone.

Assays:
human PHD2 [1] = target: T1, human PHD2 (Homo sapiens (Human), UniProt Q9GZT9); assay: Test 2: human PHD2 inhibitory activity, fluorescence polarization assay of HIF-1α peptide proline hydroxylation; assay type: biochemical; details: for inhibition at 1 µM: read-out: Percent inhibition (% at 1 μM)
T1 sequence (Q9GZT9 whole entry): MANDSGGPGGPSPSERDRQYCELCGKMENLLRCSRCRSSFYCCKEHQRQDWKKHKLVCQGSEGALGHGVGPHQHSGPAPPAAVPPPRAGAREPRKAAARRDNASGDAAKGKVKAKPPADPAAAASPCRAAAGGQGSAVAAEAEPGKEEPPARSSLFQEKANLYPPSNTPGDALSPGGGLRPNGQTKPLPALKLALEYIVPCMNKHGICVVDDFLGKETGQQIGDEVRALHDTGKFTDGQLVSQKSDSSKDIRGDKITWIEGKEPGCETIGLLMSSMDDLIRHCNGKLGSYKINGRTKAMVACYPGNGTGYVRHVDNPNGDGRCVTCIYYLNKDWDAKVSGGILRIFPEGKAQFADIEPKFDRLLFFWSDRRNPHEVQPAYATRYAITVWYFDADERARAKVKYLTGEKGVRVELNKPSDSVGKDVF
Outline: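 A 19-mer HIF-1α peptide served as substrate, with the reaction started by 40 ng/well human PHD2 (cell lysate of NM_022051-transfected cells) and run 20 min at 30° C. before EDTA stop. Hydroxylated product bound anti-HIF-OH antibody, read by fluorescence polarization versus no-compound control.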

human PHD2 [2] = target: T1, human PHD2; assay: Test 1: human PHD2 inhibitory activity, [14C]-2-oxoglutarate to [14C]-succinic acid radiometric assay with HIF-1α peptide; assay type: biochemical; details: read-out: Percent inhibition (% at 1 μM)
Protocol: (1) Expression and Preparation of Human PHD2
Human PHD2 was expressed in insect cells (HighFive cells). A registered sequence of human PHD2 (NM_022051) was introduced into the pFastBacl vector (Invitrogen), and the sequence was verified. The vector was introduced into Sf9 insect cells (Invitrogen) to acquire human PHD2 baculovirus. HighFive insect cells (Invitrogen) were infected with this recombinant virus and cultured at 27° C. for 72 hours; thereafter, a cell lysis solution containing various protease inhibitors was added and the cells were disrupted to form a suspension. The suspension of disrupted cells was centrifuged at 4° C. and 100,000×g for 30 minutes and the supernatant was recovered as a cell lysate.
(2) Measurement of Human PHD2 Inhibitory Activity
The activity of human PHD2 enzyme was measured with a substrate which is a 19-residue partial peptide based on the sequence of HIF-1α. Specifically, the conversion of 2-oxoglutarate to succinic acid which would occur simultaneously with the hydroxylation of a proline residue in the peptide with the PHD2 enzyme was utilized. To be more specific, [^14C]-2-oxogiutarate was added to the reaction system to initiate an enzymatic reaction and the [^14C]-2-oxoglutarate remaining after the reaction was bound to 2,4-dinitrophenylhydrazine (DNPH), with the resulting precipitate being removed by passage through a filter. Subsequently, radiation counting was conducted on the resulting [^14C]-succinic acid.
A test compound, HIF-1αpeptide and [^14C]-2-oxoglutarate were preliminarily added onto 96-well plates and reaction was initiated by adding a human PHD2 enzyme solution (4 μg/well). After 15-min incubation at 37° C., a DNPH-containing quench solution was added and the mixture was allowed to stand at room temperature for 30 minutes. Thereafter, an excess of non-radiolabelled 2-oxoglutarate was added and the mixture was allowed to stand at room temperature for 60 minutes. The resulting precipitate was removed by passage through a filter and the radiation count on the [^14C]-succinic acid was quantified (with MicroBeta). Radiation counting was conducted for each well and the human PHD2 inhibitory activity of each test compound was calculated on the basis of the values for the substrate-free group and the test compound-free group.

[3] = test compound's concentration 1 μM, Test 2, fluorescence polarization assay
[4] = test compound's concentration 1 μM, Test 1, [14C]-2-oxoglutarate radiometric assay

Structure (SMILES)	inhibition at 1 µM (human PHD2 [1]; [3]) [%]	inhibition at 1 µM (human PHD2 [2]; [4]) [%]	inhibition at 1 µM (human PHD2 [1]) [%]	inhibition at 1 µM (human PHD2 [2]) [%]	IC50 (human PHD2 [1]; human PHD2, fluorescence polarization assay, 20-min incubation at 30° C.) [nM]
O=C(O)CNC(=O)C1=C(O)CC2(CCOCC2)N(Cc2ccc(-c3ccc(C(F)(F)F)cc3)cc2)C1=O [Ex. 1-1, N-[(4-Hydroxy-2-oxo-1-{[4′-(trifluoromethyl)biphenyl-4-yl]methyl}-9-oxa-1-azaspiro[5.5]undec-3-en-3-yl)carbonyl]glycine]	94	78	–	–	–
O=C(O)CNC(=O)C1=C(O)CC2(COC2)N(Cc2ccc(-c3ccccc3)cc2)C1=O [Ex. 1-2, N-{[5-(Biphenyl-4-ylmethyl)-8-hydroxy-6-oxo-2-oxa-5-azaspiro[3.5]non-7-en-7-yl]carbonyl}glycine]	92	94	–	–	–
CC1CN(Cc2ccc(OC(F)(F)F)cc2)C(=O)C(C(=O)NCC(=O)O)=C1O (stereo not drawn) [Ex. 1-3, N-({4-Hydroxy-5-methyl-2-oxo-1-[4-(trifluoromethoxy)benzyl]-1,2,5,6-tetrahydropyridin-3-yl}carbonyl)glycine sodium salt]	–	–	78	74	–
O=C(O)CNC(=O)C1=C(O)C2(CCCCC2)CN(Cc2ccccc2)C1=O [Ex. 1-6]	57	50	–	–	–
O=C(O)CNC(=O)C1=C(O)C2(CCCCC2)CN(Cc2ccc3ccccc3c2)C1=O [Ex. 1-7]	68	54	–	–	–
O=C(O)CNC(=O)C1=C(O)C2(CCCCC2)CN(Cc2ccc(-c3ccccc3)cc2)C1=O [Ex. 1-8]	87	54	–	–	–
O=C(O)CNC(=O)C1=C(O)CC2(CCCC2)N(Cc2ccc(-c3ccccc3)cc2)C1=O [Ex. 1-9]	93	88	–	–	–
O=C(O)CNC(=O)C1=C(O)CC2(CCOCC2)N(Cc2ccc(-c3ccccc3)cc2)C1=O [Ex. 1-10]	92	93	–	–	–
O=C(O)CNC(=O)C1=C(O)C2(CCOCC2)CN(Cc2ccc(-c3ccccc3)cc2)C1=O [Ex. 1-11]	93	95	–	–	–
O=C(O)CNC(=O)C1=C(O)C2(CCCC2)CN(Cc2ccc(-c3ccccc3)cc2)C1=O [Ex. 1-13]	81	64	–	–	–
O=C(O)CNC(=O)C1=C(O)C2(CCCCCC2)CN(Cc2ccc(-c3ccccc3)cc2)C1=O [Ex. 1-14]	36	21	–	–	–
O=C(O)CNC(=O)C1=C(O)C2(CCC2)CN(Cc2ccc(-c3ccccc3)cc2)C1=O [Ex. 1-15]	86	72	–	–	–
CC1(C)CC(O)=C(C(=O)NCC(=O)O)C(=O)N1Cc1ccc(-c2ccccc2)cc1 [Ex. 1-17]	85	84	–	–	–
O=C(O)CNC(=O)C1=C(O)CCN(Cc2ccccc2)C1=O [Ex. 1-21]	73	72	–	–	–
O=C(O)CNC(=O)C1=C(O)CCN(Cc2ccc(Br)cc2)C1=O [Ex. 1-23]	82	84	–	–	–
O=C(O)CNC(=O)C1=C(O)CCN(Cc2cccc(-c3ccccc3)c2)C1=O [Ex. 1-24]	84	74	–	–	–
O=C(O)CNC(=O)C1=C(O)CCN(Cc2ccccc2-c2ccccc2)C1=O [Ex. 1-25]	76	72	–	–	–
O=C(O)CNC(=O)C1=C(O)CCN(CC2CCC(c3ccccc3)CC2)C1=O (stereo not drawn) [Ex. 1-26]	–	90	–	–	–
CC1(C)CN(Cc2ccc(-c3ccccc3)cc2)C(=O)C(C(=O)NCC(=O)O)=C1O [Ex. 1-27]	89	75	–	–	–
O=C(O)CNC(=O)C1=C(O)CCN(Cc2ccc(Oc3ccccc3)cc2)C1=O [Ex. 1-28]	92	94	–	–	88
O=C(O)CNC(=O)C1=C(O)CCN(Cc2ccc3ccccc3c2)C1=O [Ex. 1-29]	86	81	–	–	–
O=C(O)CNC(=O)C1=C(O)CCN(CCCCCc2ccccc2)C1=O [Ex. 1-30]	83	77	–	–	–
O=C(O)CNC(=O)C1=C(O)CCN(CCc2ccc(-c3ccccc3)cc2)C1=O [Ex. 1-31]	89	89	–	–	–
O=C(O)CNC(=O)C1=C(O)CCN(Cc2ccc3cccnc3c2)C1=O [Ex. 1-32]	82	78	–	–	–
O=C(O)CNC(=O)C1=C(O)CCN(Cc2cccc3ccccc23)C1=O [Ex. 1-33]	84	72	–	–	–
O=C(O)CNC(=O)C1=C(O)CCN(CCc2ccccc2)C1=O [Ex. 1-34]	75	58	–	–	–

Structure (SMILES)	inhibition at 1 µM (human PHD2 [1]; [3]) [%]	inhibition at 1 µM (human PHD2 [2]; [4]) [%]	inhibition at 1 µM (human PHD2 [1]) [%]	inhibition at 1 µM (human PHD2 [2]) [%]	IC50 (human PHD2 [1]; human PHD2, fluorescence polarization assay, 20-min incubation at 30° C.) [nM]
O=C(O)CNC(=O)C1=C(O)CCN(Cc2ccc(-c3ccccn3)cc2)C1=O [Ex. 1-35]	90	81	–	–	–
CC(C)(C)c1ccc(-c2ccc(CN3CCC(O)=C(C(=O)NCC(=O)O)C3=O)cc2)cc1 [Ex. 1-36]	85	83	–	–	–
O=C(O)CNC(=O)C1=C(O)CCN(Cc2ccc(C3CCCCC3)cc2)C1=O [Ex. 1-37]	89	87	–	–	–
O=C(O)CNC(=O)C1=C(O)CCN(c2ccccc2)C1=O [Ex. 1-38]	66	48	–	–	–
O=C(O)CNC(=O)C1=C(O)CCN(c2cccc(Oc3ccccc3)c2)C1=O [Ex. 1-39]	86	76	–	–	–
O=C(O)CNC(=O)C1=C(O)CCN(c2ccc(Oc3ccccc3)cc2)C1=O [Ex. 1-40]	91	79	–	–	–
O=C(O)CNC(=O)C1=C(O)CCN(Cc2cnc(-c3ccccc3)nc2)C1=O [Ex. 1-41]	90	89	–	–	–
O=C(O)CNC(=O)C1=C(O)CCN(Cc2ccc(Cc3ccccc3)cc2)C1=O [Ex. 1-42]	94	90	–	–	–
O=C(O)CNC(=O)C1=C(O)CCN(Cc2cnc(C3CCCCC3)nc2)C1=O [Ex. 1-43]	79	74	–	–	–
O=C(O)CNC(=O)C1=C(O)CCN(Cc2cnc(-c3ccccc3)s2)C1=O [Ex. 1-44]	91	87	–	–	–
O=C(O)CNC(=O)C1=C(O)CCN(Cc2cc(-c3ccccc3)no2)C1=O [Ex. 1-45]	88	82	–	–	–
O=C(O)CNC(=O)C1=C(O)CCN(Cc2ccc3c(c2)CCCC3)C1=O [Ex. 1-46]	84	78	–	–	–
COc1ccc(CN2CCC(O)=C(C(=O)NCC(=O)O)C2=O)cc1 [Ex. 1-48]	79	67	–	–	–
O=C(O)CNC(=O)C1=C(O)CC(c2ccccc2)N(Cc2ccccc2)C1=O (stereo not drawn) [Ex. 1-49]	55	55	–	–	–
O=C(O)CNC(=O)C1=C(O)CC(c2ccccc2)N(Cc2ccc(-c3ccccc3)cc2)C1=O (stereo not drawn) [Ex. 1-50]	83	77	–	–	–
O=C(O)CNC(=O)C1=C(O)[C@@H]2CCCC[C@@H]2N(Cc2ccc(-c3ccccc3)cc2)C1=O [Ex. 1-51]	73	58	–	–	–
O=C(O)CNC(=O)C1=C(O)[C@@H]2CCCCC2N(Cc2ccc(-c3ccccc3)cc2)C1=O (stereo partly drawn) [Ex. 1-52]	78	58	–	–	–
CCc1ccc(CN2CCC(O)=C(C(=O)NCC(=O)O)C2=O)cc1 [Ex. 1-53]	78	78	–	–	–
O=C(O)CNC(=O)C1=C(O)CCN(Cc2ccc(C(F)(F)F)cc2C(F)(F)F)C1=O [Ex. 1-54]	71	60	–	–	–
CC(C)(C)c1ccc(CN2CCC(O)=C(C(=O)NCC(=O)O)C2=O)cc1 [Ex. 1-55]	79	75	–	–	–
O=C(O)CNC(=O)C1=C(O)C(c2ccccc2)CN(Cc2ccc(-c3ccccc3)cc2)C1=O (stereo not drawn) [Ex. 1-57]	83	58	–	–	–
O=C(O)CNC(=O)C1=C(O)CCN(Cc2cc(C(F)(F)F)cc(C(F)(F)F)c2)C1=O [Ex. 1-59]	54	41	–	–	–
Cc1ccc(CN2CCC(O)=C(C(=O)NCC(=O)O)C2=O)c(C)c1 [Ex. 1-60]	76	66	–	–	–
COc1cccc(CN2CCC(O)=C(C(=O)NCC(=O)O)C2=O)c1 [Ex. 1-61]	71	58	–	–	–
COc1ccc(CN2CCC(O)=C(C(=O)NCC(=O)O)C2=O)c(C)c1 [Ex. 1-62]	68	65	–	–	–
